We go through 4 compounds from patent US4668674A, “(+)-6-chloro-5,10-dihy dro-5-[(1-methyl-4-piperidinyl)-acetyl]-11H-dibenzo[b,][1,4]diazepin-11-o ne, the isolation thereof and its use as a pharmaceutical material” (Dr. Karl Thomae GmbH, priority 1985, dated 1987).

Data set [1] relates to volume and total acid secretion. Description: Effect on rats after ligature of the pylorus (gastric juice volume and total acid). Particulars: rat, i.v.; for ED50 value: given immediately before pylorus ligature, 2 hours, 120 min. The class given is in vivo, Male Wistar rats. The procedure: Effect on rats after ligature of the pylorus
Male Wistar rats (weighing between 100 and 125 g) which had fasted for 24 hours but had free access to water was used. The rats were divided up into groups of 10 animals. The rats were anaesthetised with ether and the abdominal cavity was opened up by longitudinal cutting and the pylorus was tied off. Before ligature of the pylorus, the substances dissolved in saline solution were administered intravenously in metered doses (0.1 ml/100 g of body weight), the intravenous administration was carried out immediately before ligature of the pylorus; control animals were given only the saline solution. Two hours after the ligature the animals were killed and the stomachs were carefully removed. The stomach contents were collected and centrifuged for 15 minutes at 4000 rpm, then the supernatant was separated off in order to determine the volume of gastric juices. Using a pH measuring apparatus (I.T.T. Radiometer PHM 62) the acidity was measured by titration to pH 7 of 1 ml samples of the gastric juices.
The total acid was calculated from the product of the measured volume and acidity (microequivalent.ml) and expressed as microequivalents over 2 or 4 hours. The data obtained from the individual pretreated rats were compared with the average values obtained from the control groups and expressed as the percentage deviation. The percentage values were transformed into probits and subjected to linear regression analysis in order to determine the ED50 values for volume and total acid secretion, whilst observing 95% confidence limits.

The test system of data set [2] is secretion of gastric acid. Description: Anti-ulcerative effect, inhibition of gastric acid secretion and effect on other gastro-intestinal diseases (general statement). The format is in vivo. Particulars: for physiological/biological effectiveness: statement in words.
Data set [3] in a line: Racemisation Test. The class given is physicochemical.
For data set [4] the following is noted: ambient temperature; Arzneim.-Forsch./Drug Res. 34(II), 8, 849-859 (1984); cited from earlier work.
[5] abbreviates: pH 1 to 9, water, glycol, melt, up to 150° C., fifteen minutes.

For the compound `CN1CCC(CC(=O)N2c3ccccc3C(=O)Nc3cccc(Cl)c32)CC1` [(-) form], the “deviation from the average values of untreated control groups” value in data set [1] (3 mg/kg) was determined as 1.6%. Further, the ED50 value in data set [1] is reported as over 3 mg/kg. Further, the “quantity required to achieve the same results” value in data set [2] ((-) form, to achieve the same results) was “at least 50 times”.

For `CN1CCC(CC(=O)N2c3ccccc3C(=O)Nc3cccc(Cl)c32)CC1` [(+) form, (+)-6-Chloro-5,10-dihydro-5-[(1-methyl-4-piperidinyl)-acetyl]-11H-dibenzo[b,e][1,4]diazepin-11-one], in data set [3] (setting [5]), the “formation of (-) enantiomer (HPLC)” value is “no (-) enantiomer had formed”, the “optical rotation on heating” value was “remained constant” and the racemisation entry is listed as “no racemisation”. In data set [1], this compound yielded an ED50 value of 0.18 mg/kg. The “activity in the pylorus ligature experiment” value in data set [1] (conclusion in words) is listed as “the form which carries the activity”. Besides, the “dosage needed to achieve the same results, relative to the mixture of enantiomers” value in data set [2] (compared with the mixture of enantiomers) is given as “approximately only half the dosage”. The “effect on various other diseases of the gastro-intestinal tract” value in data set [2] (particularly low bowel distress symptoms) was “favourable effect on various other diseases of the gastro-intestinal tract”. In addition, the physiological/biological effectiveness entry in data set [2] is given as “physiologically highly effective”. Also, the physiological/biological effectiveness result in data set [2] (listed as Ia) was “biologically effective form”. In addition, in data set [2] (unlike the (-) form), the anti-ulcerative effect result is given as “Powerful anti-ulcerative effect” and the “effect on the secretion of gastric acid” value is recorded as “inhibitory effect on the secretion of gastric acid”.

Consider `CN1CCN(CC(=O)N2c3ccccc3C(=O)Nc3cccnc32)CC1` [pirenzepine], for which the “interconversion of enantiomeric forms” value in data set [4] was “rapidly interconvert”.

`CN1CCC(CC(=O)N2c3ccccc3C(=O)Nc3cccc(Cl)c32)CC1` [formula I, 6-chloro-5,10-dihydro-5-[(1-methyl-4-piperidinyl)-acetyl]-11H-dibenzo[b,e][1,4]diazepin-11-one]: in data set [3] (ambient temperature), the “stability of enantiomeric forms” value is “stable at ambient temperature”.
